From patent US20080293696A1, “2-Aminoarylcarboxamides Useful as Cancer Chemotherapeutic Agents” (Bayer Pharmaceuticals Corporation, priority 2004, published 2008)
Structures can show the parent of a compound that is named as a salt.

Tested on: PAKT/PKB (p-(S473) AKT) in H209 small cell lung carcinoma cells stimulated with Stem Cell Factor
Assay: PAKT/PKB Cytoblot Assay with H209 cells (SCF-stimulated p-(S473) AKT)
Type: cell-based
Conditions: Homo sapiens, NCI-H209, compound 1 hour, SCF 25 ng/mL 5 minutes, group: between 500 nM and 1 μM (units in value)
Summary of the method: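 H209 SCLC cells kept overnight in RPMI with 0.1% BSA were pretreated 1 h at 37 °C with compound (0.01–10 μM final), then stimulated with SCF 25 ng/mL for 5 min. After formaldehyde/methanol fixation, p-(S473) AKT was detected in-cell with HRP secondary and ECL chemiluminescence, and IC50 was derived.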

Structure (SMILES) | IC50 [nM]
N#Cc1cc(CNc2cc(F)c(F)cc2C(=O)Nc2ccc3c(c2)OC(F)(F)C(F)(F)O3)ccn1 [Example 38, 2-{[(2-cyanopyridin-4-yl)methyl]amino}-4,5-difluoro-N-(2,2,3,3-tetrafluoro-2,3-dihydro-1,4-benzodioxin-6-yl)benzamide] | 500 to 1000
O=C(NCc1ccccc1)Nc1cc(CNc2ccccc2C(=O)Nc2ccc3c(c2)OC(F)(F)O3)ccn1 [Example 172, 2-{[(2-{[(benzylamino)carbonyl]amino}pyridin-4-yl)methyl]amino]-N-(2,2-difluoro-1,3-benzodioxol-5-yl)benzamide] | 500 to 1000

More lines, now with the values ahead:

IC50 [nM] | Structure (SMILES)
500 to 1000 | O=C(NCCc1ccc(O)cc1)c1cc(CNc2ccccc2C(=O)Nc2ccc3c(c2)OC(F)(F)O3)ccn1 [Example 129, 4-{[(2-{[(2,2-difluoro-1,3-benzodioxol-5-yl)amino]carbonyl}phenyl)amino]methyl}-N-[2-(4-hydroxyphenyl)ethyl]pyridine-2-carboxamide]
500 to 1000 | O=C(Nc1ccc2c(c1)C(F)(F)OC(F)(F)O2)c1ccccc1NCc1ccnc(C2=NCCN2)c1 [Example 40, 2-({[2-(4,5-dihydro-1H-imidazol-2-yl)pyridin-4-yl]methyl}amino)-N-(2,2,4,4-tetrafluoro-4H-1,3-benzodioxin-6-yl)benzamide]
500 to 1000 | O=C(Nc1ccc2c(c1)C(F)(F)OC(F)(C(F)(F)F)O2)c1cccnc1NCc1ccncc1 (stereo not drawn) [Example 16, 2-[(Pyridin-4-ylmethyl)amino]-N-[2,4,4-trifluoro-2-(trifluoromethyl)-4H-1,3-benzodioxin-6-yl]nicotinamide]

Same assay, conditions: Homo sapiens, NCI-H209, compound 1 hour, SCF 25 ng/mL 5 minutes, group: between 1 and 3 μM

Structure (SMILES) | IC50 [nM]
N#Cc1cccc(NC(=O)Nc2cc(CNc3ccccc3C(=O)Nc3ccc4c(c3)OC(F)(F)O4)ccn2)c1 [Example 166, 2-({[2-({[(3-cyanophenyl)amino]carbonyl}amino)pyridin-4-yl]methyl}amino)-N-(2,2-difluoro-1,3-benzodioxol-5-yl)benzamide] | 1000 to 3000
O=C(NC1CCN(Cc2ccccc2)C1)c1cc(CNc2ccccc2C(=O)Nc2ccc3c(c2)OC(F)(F)O3)ccn1 (stereo not drawn) [Example 118, N-(1-benzylpyrrolidin-3-yl)-4-{[(2-{[(2,2-difluoro-1,3-benzodioxol-5-yl)amino]carbonyl}phenyl)amino]methyl}pyridine-2-carboxamide] | 1000 to 3000
COc1cccc(NC(=O)Nc2cc(CNc3ccccc3C(=O)Nc3ccc4c(c3)OC(F)(F)O4)ccn2)c1 [Example 167, N-(2,2-difluoro-1,3-benzodioxol-5-yl)-2-({[2-({[(3-methoxyphenyl)amino]carbonyl}amino)pyridin-4-yl]methyl}amino)benzamide] | 1000 to 3000

Results, then the compound that gave them:

IC50 [nM] | Structure (SMILES)
1000 to 3000 | CCOc1ccc(CCNC(=O)c2cc(CNc3ccccc3C(=O)Nc3ccc4c(c3)OC(F)(F)O4)ccn2)cc1OC [Example 125, 4-{[(2-{[(2,2-difluoro-1,3-benzodioxol-5-yl)amino]carbonyl}phenyl)amino]methyl}-N-[2-(4-ethoxy-3-methoxyphenyl)ethyl]pyridine-2-carboxamide]
1000 to 3000 | COc1cccc(C(=O)Nc2ccc3c(c2)OC(F)(F)C(F)(F)O3)c1NCc1ccncc1 [Example 7, 3-methoxy-2-[(pyridin-4-ylmethyl)amino]-N-(2,2,3,3-tetrafluoro-2,3-dihydro-1,4-benzodioxin-6-yl)benzamide]
1000 to 3000 | CSCC[C@@H](CO)NC(=O)c1cc(CNc2ccccc2C(=O)Nc2ccc3c(c2)OC(F)(F)O3)ccn1 [Example 127, 4-{[(2-{[(2,2-difluoro-1,3-benzodioxol-5-yl)amino]carbonyl}phenyl)amino]methyl}-N-[(1S)-1-(hydroxymethyl)-3-(methylthio)propyl]pyridine-2-carboxamide]

Same assay, conditions: Homo sapiens, NCI-H209, compound 1 hour, SCF 25 ng/mL 5 minutes, group: less than 500 nM

Structure (SMILES) | IC50 [nM]
O=C(Nc1ccc2c(c1)OC(F)(F)O2)c1ccccc1NCc1ccnc(NCCCN2CCOCC2)c1 [Example 144, N-(2,2-difluoro-1,3-benzodioxol-5-yl)-2-[({2-[(3-morpholin-4-ylpropyl)amino]pyridin-4-yl}methyl)amino]benzamidebis(trifluoroacetate)] | < 500
CCCNC(=O)Nc1cc(CNc2ccccc2C(=O)Nc2ccc3c(c2)OC(F)(F)O3)ccn1 [Example 169, N-(2,2-difluoro-1,3-benzodioxol-5-yl)-2-{[(2-{[(propylamino)carbonyl]amino}pyridin-4-yl)methyl]amino}benzamide] | < 500
CCOC(=O)CCC(=O)N(C(=O)CCC(=O)OCC)c1cc(CNc2ccccc2C(=O)Nc2ccc3c(c2)OC(F)(F)O3)ccn1 [Example 158, diethyl 4,4′-[(4-{[(2-{[(2,2-difluoro-1,3-benzodioxol-5-yl)amino]carbonyl}phenyl)amino]methyl}pyridin-2-yl)imino]bis(4-oxobutanoate)] | < 500
O=C(Nc1ccc2c(c1)OC(F)(F)O2)c1ccccc1NCc1ccnc(NCC2CCCO2)c1 (stereo not drawn) [Example 148, N-(2,2-difluoro-1,3-benzodioxol-5-yl)-2-[({2-[(tetrahydrofuran-2-ylmethyl)amino]pyridin-4-yl}methyl)amino]benzamide trifluoroacetate] | < 500
CN(C)CCCCCNC(=O)c1cc(CNc2ccccc2C(=O)Nc2ccc3c(c2)OC(F)(F)O3)ccn1 [Example 100, 4-{[(2-{[(2,2-difluoro-1,3-benzodioxol-5-yl)amino]carbonyl}phenyl)amino]methyl)-N-[5-(dimethylamino)pentyl]pyridine2-carboxamide] | < 500
CNc1cc(CNc2ccccc2C(=O)Nc2ccc3c(c2)OC(F)(F)O3)ccn1 [Example 139, N-(2,2-difluoro-1,3-benzodioxol-5-yl)-2-({[2-(methylamino)pyridin-4-yl]methyl}amino)benzamide trifluoroacetate] | < 500
COc1cccc(NCc2ccncc2)c1C(=O)Nc1ccc2c(c1)C(F)(F)OC(F)(F)O2 [Example 10, 2-methoxy-6-[(pyridin-4-ylmethyl)amino]-N-(2,2,4,4-tetrafluoro-4H-1,3-benzodioxin-6-yl)benzamide] | < 500
CC1CCCCN1CCCNC(=O)c1cc(CNc2ccccc2C(=O)Nc2ccc3c(c2)OC(F)(F)O3)ccn1 (stereo not drawn) [Example 119, 4-{[(2-{[(2,2-difluoro-1,3-benzodioxol-5-yl)amino]carbonyl}phenyl)amino]methyl}-N-[3-(2-methylpiperidin-1-yl)propyl]pyridine-2-carboxamide] | < 500
COCCCNC(=O)c1cc(CNc2ccccc2C(=O)Nc2ccc3c(c2)OC(F)(F)O3)ccn1 [Example 89, 4-{[(2-{[(2,2-difluoro-1,3-benzodioxol-5-yl)amino]carbonyl}phenyl)amino]methyl}-N-(3-methoxypropyl)pyridine-2-carboxamide] | < 500

Next, values leading:

IC50 [nM] | Structure (SMILES)
< 500 | Cc1csc(Nc2cc(CNc3ccccc3C(=O)Nc3ccc4c(c3)OC(F)(F)O4)ccn2)n1 [Example 176, N-(2,2-difluoro-1,3-benzodioxol-5-yl)-2-[({2-[(4-methyl-1,3-thiazol-2-yl)amino]pyridin-4-yl}methyl)amino]benzamide]
< 500 | O=C(NCCOCCO)c1cc(CNc2ccccc2C(=O)Nc2ccc3c(c2)OC(F)(F)O3)ccn1 [Example 103, 4-{[(2-{[(2,2-difluoro-1,3-benzodioxol-5-yl)amino]carbonyl}phenyl)amino]methyl}-N-[2-(2-hydroxyethoxy)ethyl]pyridine-2carboxamide]
< 500 | CS(=O)(=O)Nc1cc(CNc2ccccc2C(=O)Nc2ccc3c(c2)OC(F)(F)O3)ccn1 [Example 175, N-(2,2-difluoro-1,3-benzodioxol-5-yl)-2-[({2-[(methylsulfonyl)amino]pyridin-4-yl}methyl)amino]benzamide]
< 500 | O=C(Nc1ccc2c(c1)OC(F)(F)O2)c1ccccc1NCc1ccnc(NCCO)c1 [Example 134, N-(2,2-difluoro-1,3-benzodioxol-5-yl)-2-[({2-[(2-hydroxyethyl)amino]pyridin-4-yl}methyl)amino]benzamide trifluoroacetate (salt)]
< 500 | O=C(NCCCCN1CCCC1)c1cc(CNc2ccccc2C(=O)Nc2ccc3c(c2)OC(F)(F)O3)ccn1 [Example 97, 4-{[(2-{[(2,2-difluoro-1,3-benzodioxol-5-yl)amino]carbonyl}phenyl)amino]methyl}-N-(4-pyrrolidin-1-ylbutyl)pyridine-2-carboxamide]
< 500 | O=C(NCCc1ccccn1)c1cc(CNc2ccccc2C(=O)Nc2ccc3c(c2)OC(F)(F)O3)ccn1 [Example 120, 4-{[(2-{[(2,2-difluoro-1,3-benzodioxol-5-yl)amino]carbonyl}phenyl)amino]methyl}-N-(2-pyridin-2-ylethyl)pyridine-2-carboxamide]
< 500 | CN(C)C(=O)Nc1cc(CNc2ccccc2C(=O)Nc2ccc3c(c2)OC(F)(F)O3)ccn1 [Example 174, N-(2,2-difluoro-1,3-benzodioxol-5-yl)-2-{[(2-{[(dimethylamino)carbonyl]amino}pyridin-4-yl)methyl]amino}benzamide]
< 500 | O=C(NCCCN1CCCC1)c1cc(CNc2ccccc2C(=O)Nc2ccc3c(c2)OC(F)(F)O3)ccn1 [Example 92, 4-{[(2-{[(2,2-difluoro-1,3-benzodioxol-5-yl)amino]carbonyl}phenyl)amino]methyl}-N-(3-pyrrolidin-1-ylpropyl)pyridine-2-carboxamide]
< 500 | CCN(CC)CCCNC(=O)c1cc(CNc2ccccc2C(=O)Nc2ccc3c(c2)OC(F)(F)O3)ccn1 [Example 87, N-[3-(diethylamino)propyl]-4-{[(2-{[(2,2-difluoro-1,3-benzodioxol-5-yl)amino]carbonyl}phenyl)amino]methyl}pyridine-2-carboxamide]
< 500 | CNC(=O)c1cc(CNc2cc(F)c(F)cc2C(=O)Nc2ccc3c(c2)OC(F)(F)C(F)(F)O3)ccn1 [Example 37, 4-{[(4,5-difluoro-2-{[(2,2,3,3-tetrafluoro-2,3-dihydro-1,4-benzodioxin-6-yl)amino]carbonyl}phenyl)amino]methyl}-N-methylpyridine-2-carboxamide]
